From patent publication US8426408B2, “Pyrimidine inhibitors of kinases” (AbbVie Inc., priority 2009, dated 2013)
pIC50, pKi: −log10 of the molar value.

Experiments:
Aurora A = biological target: T1, Aurora A (Homo sapiens, UniProt O14965); test: Aurora A enzyme inhibition (time-resolved fluorescence, STK substrate-2); format: biochemical; settings: 1 mM ATP
T1 sequence (O14965 1-403): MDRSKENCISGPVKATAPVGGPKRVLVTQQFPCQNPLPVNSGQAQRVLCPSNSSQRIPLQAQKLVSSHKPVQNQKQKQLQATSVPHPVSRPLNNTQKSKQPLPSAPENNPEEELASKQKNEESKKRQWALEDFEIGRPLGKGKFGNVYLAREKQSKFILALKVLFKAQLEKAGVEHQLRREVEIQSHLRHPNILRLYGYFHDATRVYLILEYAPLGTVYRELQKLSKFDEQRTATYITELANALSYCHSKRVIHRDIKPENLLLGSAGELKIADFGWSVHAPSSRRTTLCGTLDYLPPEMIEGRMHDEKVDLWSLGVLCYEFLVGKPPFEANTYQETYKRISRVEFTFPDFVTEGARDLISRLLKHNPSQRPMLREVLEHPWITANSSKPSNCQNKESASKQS
How it was run: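 Phosphorylation of biotinylated STK substrate-2 at 1 mM ATP, 1 h, Hepes buffer pH 7.4 (MgCl2, sodium orthovanadate, Triton X-100). After EDTA quench, 665/615 nm time-resolved fluorescence ratio read via europium anti-phospho antibody and SA-XL665; IC50 from exponential fit versus inhibitor concentration.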

Aurora B = biological target: T2, Aurora B (Homo sapiens, UniProt Q96GD4); test: Aurora B enzyme inhibition (time-resolved fluorescence, histone H3 peptide); format: biochemical; settings: 1 mM ATP
T2 construct: Active Aurora B enzyme (recombinant residues 1-344)
How it was run: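 IC50s came from an exponential fit of inhibition against inhibitor concentration, with phosphorylation read as the 665/615 nm time-resolved fluorescence ratio after EDTA stop using Eu-anti-phospho-H3 and SA-APC. The 1 h reaction used Aurora B 1-344 plus GST-INCENP, biotin-histone H3 1-21 peptide and 1 mM ATP in pH 7.4 HEPES buffer.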

KDR [1] = biological target: T3, KDR (Homo sapiens, UniProt P35968); test: KDR cellular assay (KDR receptor phosphorylation ELISA); format: cell-based; design: expressed in transfected cells; host or cells: 3T3 (embryonic mouse) cells; settings: KDR transfected 3T3 (embryonic mouse) cells, VEGF stimulated; read-out: IC50 inhibition of KDR phosphorylation
Procedure: The ability of compounds to inhibit KDR receptor phosphorylation in cells was measured by ELISA following the protocol outlined below.
KDR transfected 3T3 (embryonic mouse) cells added to 96-well tissue culture plates at 20,000 cells/well.
Plates were covered and placed in a 37° C. humidified incubator with 5% CO2 overnight, to allow cells to adhere.
Coating solution was prepared: 500 l/vial PBS was added to 2 vials of anti-KDR antibody, then 1 ml solubilized anti-KDR antibody into 29.0 ml bicarbonate buffer. Coating solution was added to all wells at 150 µl/well (final amount anti-KDR=1 µg/well) and placed at 4° C. overnight.
Blocking solution (2.1 g dry milk+42 ml PBS=5% milk in PBS) was placed on a stir plate for 30 min.
Assay plates were washed twice with PBST, and 200 µl/well blocking solution was added to all wells. Assay plates were covered with plate sealers and placed in a 37° C. microplate chamber until just before cell lysate transfer.
Compound stocks were thawed or prepared in DMSO as 5 mM stocks.
Dilution medium (DM, 1% DMSO in DMEM) and compounds were diluted by half-log increments for concentration response analysis.
Conditioned media was dumped from the tissue culture plates, and plates were blotted dry.
Standard solution in DM, compound dilutions in DM, or DM (for high control, negative control, and reference wells) were added to the tissue culture plates, 25 µl/well. Each pair of tissue culture plates was prepared with the same compounds, solutions, and layout; and will be combined later; Tissue culture plates were covered and placed in the 37° C. microplate chamber for 20 min.
VEGF solution was prepared: 110 l VEGF stock+10.89 ml DM=100 ng/ml VEGF
VEGF solution or DM (for reference wells) was added to the tissue culture plates, 25 μl/well.
Tissue culture plates were covered and placed in the 37° C. microplate chamber for 10 min.
RIPA buffer was prepared (240 l NaVO3 stock+240 l PIC stock+24 l NaF stock+23.496 ml RIPA base) and added to the tissue culture plates, 50 µl/well.
Tissue culture plates were covered and placed on a Labline plate shaker for 10 min (speed about 5).
Assay plates were washed twice with PBST.
Cell lysates from matching wells of each pair of tissue culture plates were combined to =200 µl/well, and were pipetted up and down to mix. Cell lysates were transferred to the assay plates using the same layouts, 170 µl/well.
Assay plates were covered with plate sealers and placed on a Labline plate shaker for 2 hr (speed about 5).
Assay plates were washed 5 times with PBST.
Biotin antibody solution was prepared (16 l biotin antibody stock+32 ml PBST=2000× dilution) and added to the assay plates, 150 µl/well.
Assay plates were covered with plate sealers and placed on a Labline plate shaker for 90 min
Streptavidin-HRP solution was prepared (16 l streptavidin-HRP stock+32 ml PBST=2000× dilution) and added to the assay plates, 150 µl/well.
Assay plates were covered with plate sealers and placed on a Labline plate shaker for 60 min
Substrate was added to the assay plates, 100 µl/well.
As assay plates developed, the plates were each monitored on a Molecular Devices Spectramax set to 650 nm, until the signal in the high control wells was around 0.6 OD and the signal in the negative control wells was around 0.1-0.15 OD.
Stop solution was added to the assay plates, 100 µl/well.
The plates were read on a Molecular Devices Spectramax set to 450 nm.
Data was calculated by Assay Explorer, using same-plate high control wells as 0% and reference standard wells as 100% inhibition of KDR phosphorylation. IC50 values were calculated by non-linear regression analysis of the concentration response data.
Target sequence in this assay (P35968 20-1356): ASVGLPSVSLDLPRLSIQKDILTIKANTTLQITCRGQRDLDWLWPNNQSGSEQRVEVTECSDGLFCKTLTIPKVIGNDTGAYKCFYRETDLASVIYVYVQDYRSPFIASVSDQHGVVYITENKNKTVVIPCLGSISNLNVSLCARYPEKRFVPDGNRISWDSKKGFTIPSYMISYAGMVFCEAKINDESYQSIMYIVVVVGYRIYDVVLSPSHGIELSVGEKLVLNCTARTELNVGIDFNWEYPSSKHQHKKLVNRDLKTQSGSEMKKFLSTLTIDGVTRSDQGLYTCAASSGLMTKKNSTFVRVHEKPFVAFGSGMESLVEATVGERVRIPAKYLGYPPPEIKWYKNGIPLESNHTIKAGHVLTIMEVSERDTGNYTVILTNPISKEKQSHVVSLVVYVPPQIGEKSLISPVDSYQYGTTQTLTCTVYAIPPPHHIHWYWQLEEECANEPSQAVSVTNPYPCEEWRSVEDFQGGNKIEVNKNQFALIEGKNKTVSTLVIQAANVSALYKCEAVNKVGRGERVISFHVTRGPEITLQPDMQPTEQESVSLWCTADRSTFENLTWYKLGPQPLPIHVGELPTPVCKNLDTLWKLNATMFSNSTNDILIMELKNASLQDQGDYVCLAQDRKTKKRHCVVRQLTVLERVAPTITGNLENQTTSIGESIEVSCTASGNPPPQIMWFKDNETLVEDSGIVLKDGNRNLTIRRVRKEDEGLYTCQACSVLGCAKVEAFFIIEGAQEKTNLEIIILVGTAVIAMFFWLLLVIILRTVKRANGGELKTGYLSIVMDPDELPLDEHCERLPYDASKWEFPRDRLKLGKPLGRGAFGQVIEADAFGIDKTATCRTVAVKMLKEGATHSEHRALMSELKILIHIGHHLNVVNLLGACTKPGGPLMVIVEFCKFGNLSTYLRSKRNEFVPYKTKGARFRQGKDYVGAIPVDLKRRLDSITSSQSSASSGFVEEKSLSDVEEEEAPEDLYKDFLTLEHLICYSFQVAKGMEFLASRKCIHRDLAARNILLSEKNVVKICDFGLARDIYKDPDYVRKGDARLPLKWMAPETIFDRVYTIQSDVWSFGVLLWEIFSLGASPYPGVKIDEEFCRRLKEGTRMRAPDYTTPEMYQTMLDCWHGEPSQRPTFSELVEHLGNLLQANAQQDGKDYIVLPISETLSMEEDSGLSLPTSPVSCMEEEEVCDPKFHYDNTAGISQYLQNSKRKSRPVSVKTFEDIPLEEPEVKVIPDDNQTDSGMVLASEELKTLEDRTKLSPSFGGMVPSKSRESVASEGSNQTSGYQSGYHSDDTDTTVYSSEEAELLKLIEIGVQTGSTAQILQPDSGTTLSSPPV

KDR [2] = biological target: T3, KDR; test: KDR HTRF in vitro kinase assay; format: biochemical; design: purified enzyme (His6-KDR 789-1354, MW 63 kD); His6 (N); settings: 1 mM ATP; read-out: KDR enzyme inhibition data (Ki)
How it was run: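 His6-KDR 789-1354 (7 ng/well) with 0.5 μM biotinylated peptide substrate and 1 mM ATP in HEPES pH 7.1, MgCl2/MnCl2, 60 min at room temperature. EDTA-quenched, detected by streptavidin-XL-665 plus Eu-kryptate anti-phosphotyrosine HTRF after 3 h; IC50 from 620/665 nm ratio.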
Target sequence in this assay (P35968 789-1354): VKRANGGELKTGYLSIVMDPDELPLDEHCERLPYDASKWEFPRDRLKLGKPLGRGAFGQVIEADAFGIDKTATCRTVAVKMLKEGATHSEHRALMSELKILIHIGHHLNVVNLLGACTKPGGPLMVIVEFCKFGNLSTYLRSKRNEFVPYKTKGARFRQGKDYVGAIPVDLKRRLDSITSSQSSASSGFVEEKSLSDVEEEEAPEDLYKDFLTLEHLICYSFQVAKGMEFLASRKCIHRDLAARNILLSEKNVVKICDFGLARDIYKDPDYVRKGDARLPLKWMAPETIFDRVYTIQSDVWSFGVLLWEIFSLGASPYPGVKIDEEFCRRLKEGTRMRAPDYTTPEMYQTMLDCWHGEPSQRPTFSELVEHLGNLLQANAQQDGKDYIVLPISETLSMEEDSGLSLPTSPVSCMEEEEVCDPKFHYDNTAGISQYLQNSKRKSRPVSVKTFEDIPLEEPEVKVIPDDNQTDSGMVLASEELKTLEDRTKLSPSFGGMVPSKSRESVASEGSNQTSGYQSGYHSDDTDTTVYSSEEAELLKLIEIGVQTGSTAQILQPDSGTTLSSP

T2 sequence (Q96GD4 whole entry, the tested form may be a part): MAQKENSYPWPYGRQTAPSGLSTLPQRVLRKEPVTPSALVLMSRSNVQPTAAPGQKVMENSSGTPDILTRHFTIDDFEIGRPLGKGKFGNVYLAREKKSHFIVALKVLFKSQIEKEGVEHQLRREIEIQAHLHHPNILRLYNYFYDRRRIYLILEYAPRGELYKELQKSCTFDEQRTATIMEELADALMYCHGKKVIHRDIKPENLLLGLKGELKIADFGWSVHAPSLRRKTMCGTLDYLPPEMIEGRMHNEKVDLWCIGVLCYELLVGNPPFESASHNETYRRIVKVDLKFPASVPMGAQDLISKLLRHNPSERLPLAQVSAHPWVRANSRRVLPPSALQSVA
T2 sequence (Q9NQS7 826-918 partner limits assumed): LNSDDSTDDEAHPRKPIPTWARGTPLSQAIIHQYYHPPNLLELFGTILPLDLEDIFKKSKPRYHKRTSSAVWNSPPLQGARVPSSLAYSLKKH

Row | pKi (Aurora A) | pKi (Aurora B) | pIC50 (KDR [1]) | pKi (KDR [2]) | Molecule
1 | > 7.00 | > 7.00 | > 7.00 | > 7.00 | Cn1cc(Nc2ncc(Br)c(N[C@@H]3[C@H](C(N)=O)[C@H]4C=C[C@@H]3C4)n2)cn1.Cn1cc(Nc2ncc(Br)c(N[C@H]3[C@@H](C(N)=O)[C@@H]4C=C[C@H]3C4)n2)cn1 (mixture of isomers) [Example 28, (1S,2S,3R,4R)-3-({5-bromo-2-[(1-methyl-1H-pyrazol-4-yl)amino]pyrimidin-4-yl}amino)bicyclo[2.2.1]hept-5-ene-2-carboxamide and (1R,2R,3S,4S)-3-({5-bromo-2-[(1-methyl-1H-pyrazol-4-yl)amino]pyrimidin-4-yl}amino)bicyclo[2.2.1]hept-5-ene-2-carboxamide]
2 | > 7.00 | 6.00 to 7.00 | 6.00 to 7.00 | > 7.00 | NC(=O)[C@@H]1[C@H](Nc2nc(Nc3cnn(CCO)c3)ncc2C(F)(F)F)[C@H]2C=C[C@@H]1C2.NC(=O)[C@H]1[C@@H](Nc2nc(Nc3cnn(CCO)c3)ncc2C(F)(F)F)[C@@H]2C=C[C@H]1C2 (mixture of isomers) [Example 29, (1S,2S,3R,4R)-3-{[2-{[1-(2-hydroxyethyl)-1H-pyrazol-4-yl]amino}-5-(trifluoromethyl)pyrimidin-4-yl]amino}bicyclo[2.2.1]hept-5-ene-2-carboxamide and (1R,2R,3S,4S)-3-{[2-{[1-(2-hydroxyethyl)-1H-pyrazol-4-yl]amino}-5-(trifluoromethyl)pyrimidin-4-yl]amino}bicyclo[2.2.1]hept-5-ene-2-carboxamide]
3 | > 7.00 | > 7.00 | 6.00 to 7.00 | 6.00 to 7.00 | Cn1cc(Nc2ncc(C(N)=O)c(NC3C4C=CC(C4)C3C(N)=O)n2)cn1 (mixture of isomers) [Example 86, 4-{[(1S,2S,3R,4R)-3-carbamoylbicyclo[2.2.1]hept-5-ene-2-yl]amino}-2-[(1-methyl-1H-pyrazol-4-yl)amino]pyrimidine-5-carboxamide and 4-{[(1R,2R,3S,4S)-3-carbamoylbicyclo[2.2.1]hept-5-ene-2-yl]amino}-2-[(1-methyl-1H-pyrazol-4-yl)amino]pyrimidine-5-carboxamide]
4 | > 7.00 | > 7.00 | 6.00 to 7.00 | 6.00 to 7.00 | CCn1cc(Nc2nc(C)c(Cl)c(N[C@@H]3[C@H](C(N)=O)[C@H]4C=C[C@@H]3C4)n2)cn1.CCn1cc(Nc2nc(C)c(Cl)c(N[C@H]3[C@@H](C(N)=O)[C@@H]4C=C[C@H]3C4)n2)cn1 (mixture of isomers) [Example 126, (1S,2S,3R,4R)-3-({5-chloro-2-[(1-ethyl-1H-pyrazol-4-yl)amino]-6-methylpyrimidin-4-yl}amino)bicyclo[2.2.1]hept-5-ene-2-carboxamide and (1R,2R,3S,4S)-3-({5-chloro-2-[(1-ethyl-1H-pyrazol-4-yl)amino]-6-methylpyrimidin-4-yl}amino)bicyclo[2.2.1]hept-5-ene-2-carboxamide]
5 | – | – | 6.00 to 7.00 | – | CCn1cc(Nc2ncc(Cl)c(Nc3ccc4[nH]ncc4c3)n2)cn1 [Example 176, 5-chloro-N^2-(1-ethyl-1H-pyrazol-4-yl)-N^4-(1H-indazol-5-yl)pyrimidine-2,4-diamine]

More lines, now with the values behind:

Row | Molecule | pKi (Aurora A) | pKi (Aurora B) | pIC50 (KDR [1]) | pKi (KDR [2])
6 | 5-chloro-N^2-(1H-indazol-5-yl)-N^2-{1-[(3R)-pyrrolidin-3-yl]-1H-pyrazol-4-yl}pyrimidine-2,4-diamine [Example 181] | > 7.00 | > 7.00 | 6.00 to 7.00 | > 7.00
7 | Cn1cc(Nc2ncc(Cl)c(N[C@@H]3[C@H](C(N)=O)[C@H]4C=C[C@@H]3C4)n2)cn1.Cn1cc(Nc2ncc(Cl)c(N[C@H]3[C@@H](C(N)=O)[C@@H]4C=C[C@H]3C4)n2)cn1 (mixture of isomers) [Example 27, (1S,2S,3R,4R)-3-({5-chloro-2-[(1-methyl-1H-pyrazol-4-yl)amino]pyrimidin-4-yl}amino)bicyclo[2.2.1]hept-5-ene-2-carboxamide and (1R,2R,3S,4S)-3-({5-chloro-2-[(1-methyl-1H-pyrazol-4-yl)amino]pyrimidin-4-yl}amino)bicyclo[2.2.1]hept-5-ene-2-carboxamide] | > 7.00 | > 7.00 | > 7.00 | > 7.00
8 | CCn1cc(Nc2ncc(C(N)=O)c(NC3C4C=CC(C4)C3C(N)=O)n2)cn1 (mixture of isomers) [Example 87, 4-{[(1S,2S,3R,4R)-3-carbamoylbicyclo[2.2.1]hept-5-ene-2-yl]amino}-2-[(1-ethyl-1H-pyrazol-4-yl)amino]pyrimidine-5-carboxamide and 4-{[(1R,2R,3S,4S)-3-carbamoylbicyclo[2.2.1]hept-5-ene-2-yl]amino}-2-[(1-ethyl-1H-pyrazol-4-yl)amino]pyrimidine-5-carboxamide] | > 7.00 | > 7.00 | 6.00 to 7.00 | > 7.00
9 | Cc1nc(Nc2cnn(C)c2)nc(N[C@@H]2[C@H](C(N)=O)[C@H]3C=C[C@@H]2C3)c1Cl.Cc1nc(Nc2cnn(C)c2)nc(N[C@H]2[C@@H](C(N)=O)[C@@H]3C=C[C@H]2C3)c1Cl (mixture of isomers) [Example 125, (1S,2S,3R,4R)-3-({5-chloro-6-methyl-2-[(1-methyl-1H-pyrazol-4-yl)amino]pyrimidin-4-yl}amino)bicyclo[2.2.1]hept-5-ene-2-carboxamide and (1R,2R,3S,4S)-3-({5-chloro-6-methyl-2-[(1-methyl-1H-pyrazol-4-yl)amino]pyrimidin-4-yl}amino)bicyclo[2.2.1]hept-5-ene-2-carboxamide] | 6.00 to 7.00 | > 7.00 | 6.00 to 7.00 | 6.00 to 7.00
10 | isopropyl{4-[(4-{[(1R,2R,3S,4S)-3-(aminocarbonyl)bicyclo[2.2.1]hept-5-ene-2-yl]amino}-5-fluoropyrimidin-2-yl)amino]-1H-pyrazol-1-yl}acetate and isopropyl{4-[(4-{[(1S,2S,3R,4R)-3-(aminocarbonyl)bicyclo[2.2.1]hept-5-ene-2-yl]amino}-5-fluoropyrimidin-2-yl)amino]-1H-pyrazol-1-yl}acetate [Example 6] | 6.00 to 7.00 | 6.00 to 7.00 | – | 6.00 to 7.00
